Test results published in US20170121344A1 (Siga Technologies, Inc., priority 2009, published 2017).
Read-outs that look alike come from different tables or passages of the source.

Columns and labels:
[1] = tested on: DENV-4; assay: Viral yield assay against DENV-4 in Vero cells; format: cell-based; details: Dengue virus
How it was run: (§1)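 Progeny virus from compound-treated Vero monolayers infected at an MOI of 0.1 is collected after 48 h at 37° C and titered on Vero cells. DMSO serves as control.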

[2] = tested on: Dengue-2 (Strain New Guinea C); assay: Viral yield assay against Dengue-2 in Vero cells; format: cell-based, Dengue virus; details: Dengue virus, read-out: Activity (EC50 in μM) DENV-2
How it was run: as §1

[3] = tested on: DENV-3; assay: Viral yield assay against DENV-3 in Vero cells; format: cell-based; details: Dengue virus
How it was run: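 Vero cells were infected with dengue virus at an MOI of 0.1, treated with compound or DMSO vehicle, and kept at 37° C. Supernatant virus was harvested 48 hours post infection and titered on Vero cells, with EC50 derived from yield reduction.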

[4] = tested on: DENV-1; assay: Viral yield assay against DENV-1 in Vero cells; format: cell-based; details: Dengue virus
How it was run: as §1

[5] = DENV2, viral yield assay, Vero cells, MOI 0.1, 48 hours post infection

Row | Structure (SMILES) | EC50 ([1]; DENV4, viral yield assay) | EC50 [2, 5] | EC50 ([3]; DENV3, viral yield assay) | EC50 ([4]; DENV1, viral yield assay) | EC50 ([2]; DENV2, Vero, 48 h) | EC50 ([1]; DENV4) | EC50 ([2]; DENV2, Vero cells) | EC50 ([3]; DENV3) | EC50 ([4]; DENV1)
1 | Nc1c(C(=O)Nc2ccccc2Br)sc2nc(-c3cccs3)ccc12 [Compound 462, 3-amino-N-(2-bromophenyl)-6-(2-thienyl)thieno[2,3-b]pyridine-2-carboxamide] | < 5 µM | < 5 µM | < 5 µM | < 5 µM | – | – | – | – | –
2 | Nc1c(C(=O)Nc2ccc(Cl)c(C(F)(F)F)c2)sc2nc(-c3ccc4c(c3)OCO4)ccc12 [Compound 600, 3-amino-6-(1,3-benzodioxol-5-yl)-N-[4-chloro-3-(trifluoromethyl)phenyl]thieno [2,3-b]pyridine-2-carboxamide] | < 5 µM | < 5 µM | < 5 µM | < 5 µM | – | – | – | – | –
3 | COc1cccc(-c2ccc3c(N)c(C(=O)Nc4ccc(OC)cc4C)sc3n2)c1 [Compound 507, 3-amino-N-(4-methoxy-2-methyl-phenyl)-6-(3-methoxyphenyl)thieno[2,3-b] pyridine-2-carboxamide] | < 5 µM | < 5 µM | < 5 µM | < 5 µM | – | – | – | – | –
4 | Nc1c(C(=O)Nc2nnc(-c3ccccc3)s2)sc2nc(Cl)ccc12 [Compound 292] | < 5 µM | < 5 µM | < 5 µM | < 5 µM | – | – | – | – | –
5 | COc1cccc(-c2ccc3c(N)c(C(=O)Nc4ccc(F)cc4)sc3n2)c1 [Compound 510, 3-amino-N-(4-fluorophenyl)-6-(3-methoxyphenyl)thieno[2,3-b]pyridine-2-carboxamide] | < 5 µM | – | < 5 µM | < 5 µM | < 5 µM | – | – | – | –
6 | Cc1ccc(-c2ccc3c(N)c(C(=O)Nc4ccccc4Cl)sc3n2)cc1 [Compound 650, 3-amino-N-(2-chlorophenyl)-6-(p-tolyl) thieno[2,3-b]pyridine-2-carboxamide] | < 5 µM | < 5 µM | < 5 µM | < 5 µM | – | – | – | – | –
7 | Nc1c(C(=O)Nc2cccc(C(F)(F)F)c2)sc2nc(-c3ccc4c(c3)OCO4)ccc12 [Compound 453, 3-amino-6-(1,3-benzodioxol-5-yl)-N-[3-(trifluoromethyl)phenyl]thieno[2,3-b] pyridine-2-carboxamide] | < 5 µM | < 5 µM | < 5 µM | < 5 µM | – | – | – | – | –
8 | Cc1ccc(NC(=O)c2sc3nc(-c4ccc(F)cc4)ccc3c2N)cc1F [Compound 612, 3-amino-N-(3-fluoro-4-methyl-phenyl)-6-(4-fluorophenyl)thieno[2,3-b]pyridine-2-carboxamide] | < 5 µM | < 5 µM | < 5 µM | < 5 µM | – | – | – | – | –
9 | Nc1c(C(=O)Nc2ccc3c(c2)OCO3)sc2nc(-c3ccc4c(c3)OCO4)ccc12 [Compound 591, 3-amino-N,6-bis(1,3-benzodioxol-5-yl) thieno[2,3-b]pyridine-2-carboxamide] | < 5 µM | – | < 5 µM | < 5 µM | < 5 µM | – | – | – | –
10 | Nc1c(C(=O)Nc2ccccc2C(F)(F)F)sc2nc(-c3cccs3)ccc12 [Compound 437, 3-amino-6-(2-thienyl)-N-[2-(trilfuoromethyl)phenyl]thieno[2,3-b] pyridine-2-carboxamide] | < 5 µM | < 5 µM | < 5 µM | < 5 µM | – | – | – | – | –
11 | Nc1c(C(=O)Nc2ccc(OC(F)(F)F)cc2)sc2nc(-c3ccc(Cl)cc3)ccc12 [Compound 331, 3-amino-6-(4-chlorophenyl)-N-[4-(trifluoromethoxy)phenyl]thieno[2,3-b]pyridine-2-carboxamide] | 5 to 25 µM | < 5 µM | < 5 µM | < 5 µM | – | – | – | – | –
12 | Nc1c(C(=O)Nc2ccc(C(F)F)cc2)sc2nc(-c3ccc(Cl)cc3)ccc12 [Compound 337, 3-amino-6-(4-chlorophenyl)-N-[4-(difluoromethyl)phenyl]thieno[2,3-b]pyridine-2-carboxamide] | < 5 µM | < 5 µM | < 5 µM | < 5 µM | – | – | – | – | –
13 | Nc1c(C(=O)Nc2cccc(Cl)c2Cl)sc2nc(-c3ccc(Cl)cc3)ccc12 [Compound 343, 3-amino-6-(4-chlorophenyl)-N-(2,3-dichloro-phenyl)thieno [2,3-b]pyridine-2-carboxamide] | < 5 µM | < 5 µM | < 5 µM | < 5 µM | – | – | – | – | –
14 | CCCCSc1ccccc1NC(=O)c1sc2nc(-c3cccc(OC)c3)ccc2c1N [Compound 572, 3-amino-N-(2-butylsulfanylphenyl)-6-(3-methoxyphenyl)thieno[2,3-b]pyridine-2-carboxamide] | < 5 µM | < 5 µM | < 5 µM | < 5 µM | – | – | – | – | –
15 | Nc1c(C(=O)Nc2nnc(-c3ccccc3)s2)sc2nc3c(cc12)C(F)CCCC3 (centres unmarked) [Compound 330] | 5 to 25 µM | < 5 µM | 5 to 25 µM | 5 to 25 µM | – | – | – | – | –
16 | CSc1ccc(NC(=O)c2sc3nc(-c4ccc(F)cc4)ccc3c2N)cc1 [Compound 625, 3-amino-6-(4-fluorophenyl)-N-(4-methylsulfanylphenyl)thieno[2,3-b] pyridine-2-carboxamide] | > 25 µM | < 5 µM | < 5 µM | < 5 µM | – | – | – | – | –
17 | N#Cc1c(O)nc2sc(C(=O)Nc3ccc(Br)cc3)c(N)c2c1-c1ccco1 [Compound 325, 3-amino-N-(4-bromophenyl)-5-cyano-4-(2-furyl)-6-hydroxy-thieno[2,3-b]pyridine-2-carboxamide] | < 5 µM | < 5 µM | < 5 µM | < 5 µM | – | – | – | – | –
18 | COc1cccc(-c2ccc3c(N)c(C(=O)Nc4ccc(C(F)(F)F)cc4)sc3n2)c1 [Compound 448, 3-amino-6-(3-methoxyphenyl)-N-[4-(trifluoromethyl)phenyl]thieno[2,3-b] pyridine-2-carboxamide] | < 5 µM | < 5 µM | < 5 µM | < 5 µM | – | – | – | – | –
19 | COc1ccc(NC(=O)c2sc3nc(-c4cccc(OC)c4)ccc3c2N)cc1 [Compound 506, 3-amino-6-(3-methoxyphenyl)-N-(4-methoxyphenyl)thieno[2,3-b]pyridine-2-carboxamide] | < 5 µM | < 5 µM | < 5 µM | < 5 µM | – | – | – | – | –
20 | NCC(=O)Nc1c(C(=O)Nc2nnc(-c3ccccc3)s2)sc2nc(Cl)ccc12 [Compound 361, 3-[(2-aminoacetyl)amino]-6-chloro-N-(5-phenyl-1,3,4-thiadiazol-2-yl)thieno[2,3-b]pyridine-2-carboxamide] | – | – | – | – | – | > 25 µM | < 5 µM | < 5 µM | < 5 µM
21 | Nc1c(C(=O)Nc2ccc(OC(F)(F)F)cc2)sc2nc3c(cc12)CCCCC3 [Compound 369, 3-amino-N-(4-(trifluroomethoxy)phenyl)-6,7,8,9-tetrahydro-5H-cyclohepta[b]thieno [3,2-e]pyridine-2-carboxamide] | < 5 µM | < 5 µM | < 5 µM | 5 to 25 µM | – | – | – | – | –
22 | Nc1c(C(=O)Nc2ccc(F)c(F)c2)sc2nc(-c3ccc4c(c3)OCO4)ccc12 [Compound 597, 3-amino-6-(1,3-benzodioxol-5-yl)-N-(3,4-difluorophenyl)thieno[2,3-b]pyridine-2-carboxamide] | < 5 µM | – | < 5 µM | < 5 µM | < 5 µM | – | – | – | –
23 | Nc1c(C(=O)Nc2nnc(-c3ccccc3)s2)sc2nc(-c3cccs3)ccc12 [Compound 488, 3-amino-N-(5-phenyl-1,3,4-thiadiazol-2-yl)-6-(2-thienyl)thieno[2,3-b]pyridine-2-carboxamide] | < 5 µM | < 5 µM | < 5 µM | < 5 µM | – | – | – | – | –
